Source: PubChem BioAssay AID1918954 (Molecular Pharmacology Branch, DTP, NCI, 2023)

Test system: MDA-MB-468 complex spheroids with HUVEC/MSC, viability
Assay: Anticancer human tumor MDA-MB-468 cell line growth inhibition;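 note: spheroids exposed to agents for seven days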;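 for viability, T/C: 100% = DMSO vehicle control viability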
Details: for IC50: curve of first compound; for viability, T/C: stronger effect = lower value
Procedure, shortened: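 Multicellular complex spheroids of tumor cells with human endothelial cells (HUVEC) and mesenchymal stem cells; the LSD1 inhibitor iadademstat was combined with standard-of-care or investigational agents. Top concentration at or near clinical Cmax, half-log dilutions; final DMSO ≤0.25%.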

[1] = second compound 0.1 µM, first compound 0.00949 µM
[2] = second compound 0.1 µM, first compound 0.03 µM
[3] = second compound 0.1 µM, first compound 0.0949 µM
[4] = second compound 0.1 µM, first compound 0.3 µM
[5] = second compound 0.1 µM, first compound 0.949 µM
[6] = second compound 0.1 µM, first compound 3 µM
[7] = second compound 0.316 µM, first compound 0.00949 µM
[8] = second compound 0.316 µM, first compound 0.03 µM
[9] = second compound 0.316 µM, first compound 0.0949 µM
[10] = second compound 0.316 µM, first compound 0.3 µM
[11] = second compound 0.316 µM, first compound 0.949 µM
[12] = second compound 0.316 µM, first compound 3 µM
[13] = second compound 1 µM, first compound 0.00949 µM
[14] = second compound 1 µM, first compound 0.03 µM
[15] = second compound 1 µM, first compound 0.0949 µM
[16] = second compound 1 µM, first compound 0.3 µM
[17] = second compound 1 µM, first compound 0.949 µM
[18] = second compound 1 µM, first compound 3 µM
[19] = second compound 3.16 µM, first compound 0.00949 µM
[20] = second compound 3.16 µM, first compound 0.03 µM
[21] = second compound 3.16 µM, first compound 0.0949 µM
[22] = second compound 3.16 µM, first compound 0.3 µM
[23] = second compound 3.16 µM, first compound 0.949 µM
[24] = second compound 3.16 µM, first compound 3 µM
[25] = second compound 10 µM, first compound 0.00949 µM
[26] = second compound 10 µM, first compound 0.03 µM
[27] = second compound 10 µM, first compound 0.0949 µM
[28] = second compound 10 µM, first compound 0.3 µM
[29] = second compound 10 µM, first compound 0.949 µM
[30] = second compound 10 µM, first compound 3 µM

For Cn1ncnc1C1c2n[nH]c(=O)c3cc(F)cc(c23)NC1c1ccc(F)cc1 (stereo not given) + NC1CCC(NC2CC2c2ccccc2)CC1, the IC50 (second compound 0.1 µM) was 90.3 nM, the IC50 (second compound 0.316 µM) was > 100 nM and the IC50 (second compound 1 µM) was > 100 nM. The IC50 (second compound 3.16 µM) was > 100 nM, the IC50 (second compound 10 µM) was 24 nM and the viability, T/C (second compound 0.1 µM, first compound 0.000316 µM) was 74.5%. It also gave a viability, T/C (second compound 0.1 µM, first compound 0.001 µM) of 81.9%, a viability, T/C (second compound 0.1 µM, first compound 0.00316 µM) of 81.3% and a viability, T/C (second compound 0.1 µM, first compound 0.01 µM) of 71.8%. For the same compound, the viability, T/C (second compound 0.1 µM, first compound 0.0316 µM) was 70.8%, the viability, T/C (second compound 0.1 µM, first compound 0.1 µM) was 47.8% and the viability, T/C (second compound 0.316 µM, first compound 0.000316 µM) was 94.9%. For the same compound, the viability, T/C (second compound 0.316 µM, first compound 0.001 µM) was 84.6%, the viability, T/C (second compound 0.316 µM, first compound 0.00316 µM) was 91.5% and the viability, T/C (second compound 0.316 µM, first compound 0.01 µM) was 76.9%. It also gave a viability, T/C (second compound 0.316 µM, first compound 0.0316 µM) of 70.8%, a viability, T/C (second compound 0.316 µM, first compound 0.1 µM) of 49.5% and a viability, T/C (second compound 1 µM, first compound 0.000316 µM) of 65.5%. It also gave a viability, T/C (second compound 1 µM, first compound 0.001 µM) of 85%, a viability, T/C (second compound 1 µM, first compound 0.00316 µM) of 80.4% and a viability, T/C (second compound 1 µM, first compound 0.01 µM) of 65.7%. The viability, T/C (second compound 1 µM, first compound 0.0316 µM) was 60.4%, the viability, T/C (second compound 1 µM, first compound 0.1 µM) was 50.3% and the viability, T/C (second compound 3.16 µM, first compound 0.000316 µM) was 80.6%. It also gave a viability, T/C (second compound 3.16 µM, first compound 0.001 µM) of 86.9%, a viability, T/C (second compound 3.16 µM, first compound 0.00316 µM) of 72.7% and a viability, T/C (second compound 3.16 µM, first compound 0.01 µM) of 62.7%. For the same compound, the viability, T/C (second compound 3.16 µM, first compound 0.0316 µM) was 60.3%, the viability, T/C (second compound 3.16 µM, first compound 0.1 µM) was 54.7% and the viability, T/C (second compound 10 µM, first compound 0.000316 µM) was 67.5%. For the same compound, the viability, T/C (second compound 10 µM, first compound 0.001 µM) was 57%, the viability, T/C (second compound 10 µM, first compound 0.00316 µM) was 62.4% and the viability, T/C (second compound 10 µM, first compound 0.01 µM) was 56.4%. For the same compound, the viability, T/C (second compound 10 µM, first compound 0.0316 µM) was 46.7% and the viability, T/C (second compound 10 µM, first compound 0.1 µM) was 40.3%.

With NS(=O)(=O)OCC1CC(n2ccc3c(NC4CCc5ccccc54)ncnc32)CC1O (stereo not given) + NC1CCC(NC2CC2c2ccccc2)CC1 the IC50 (second compound 0.1 µM) was 24.5 nM, the IC50 (second compound 0.316 µM) was 28 nM and the IC50 (second compound 1 µM) was 27.6 nM. The IC50 (second compound 3.16 µM) was 20.6 nM, the IC50 (second compound 10 µM) was < 9.49 nM and the viability, T/C [1] was 74.4%. It also gave a viability, T/C [2] of 45%, a viability, T/C [3] of 16.9% and a viability, T/C [4] of 9.63%. It also gave a viability, T/C [5] of 6.43%, a viability, T/C [6] of 4.54% and a viability, T/C [7] of 75.9%. For the same compound, the viability, T/C [8] was 48.4%, the viability, T/C [9] was 17.9% and the viability, T/C [10] was 8.22%. For the same compound, the viability, T/C [11] was 6.34%, the viability, T/C [12] was 4.71% and the viability, T/C [13] was 66%. For the same compound, the viability, T/C [14] was 48.9%, the viability, T/C [15] was 14.8% and the viability, T/C [16] was 9.7%. The viability, T/C [17] was 7.19%, the viability, T/C [18] was 4.84% and the viability, T/C [19] was 69.5%. For the same compound, the viability, T/C [20] was 40.7%, the viability, T/C [21] was 16.4% and the viability, T/C [22] was 8.71%. For the same compound, the viability, T/C [23] was 6.1%, the viability, T/C [24] was 4.26% and the viability, T/C [25] was 46.8%. The viability, T/C [26] was 27%, the viability, T/C [27] was 11.4% and the viability, T/C [28] was 5.55%. For the same compound, the viability, T/C [29] was 4.09% and the viability, T/C [30] was 3.17%.

In the case of O=C(C=Cc1cccc(S(=O)(=O)Nc2ccccc2)c1)NO + NC1CCC(NC2CC2c2ccccc2)CC1, the IC50 (second compound 0.1 µM) is reported as 81.6 nM, the IC50 (second compound 0.316 µM) is reported as 77.5 nM and the IC50 (second compound 1 µM) is reported as 67.3 nM. It also gave an IC50 (second compound 3.16 µM) of 61.3 nM, an IC50 (second compound 10 µM) of 9.78 nM and a viability, T/C [1] of 90.7%. The viability, T/C [2] was 81.5%, the viability, T/C [3] was 44.5% and the viability, T/C [4] was 15%. It also gave a viability, T/C [5] of 2.65%, a viability, T/C [6] of 4.46% and a viability, T/C [7] of 86.7%. It also gave a viability, T/C [8] of 73.6%, a viability, T/C [9] of 45.1% and a viability, T/C [10] of 17%. For the same compound, the viability, T/C [11] was 2.84%, the viability, T/C [12] was 4.29% and the viability, T/C [13] was 74.1%. The viability, T/C [14] was 65.7%, the viability, T/C [15] was 42.9% and the viability, T/C [16] was 18.7%. The viability, T/C [17] was 3.4%, the viability, T/C [18] was 3.26% and the viability, T/C [19] was 68.9%. For the same compound, the viability, T/C [20] was 64.4%, the viability, T/C [21] was 41% and the viability, T/C [22] was 15.4%. For the same compound, the viability, T/C [23] was 3.52%, the viability, T/C [24] was 3.55% and the viability, T/C [25] was 49.8%. It also gave a viability, T/C [26] of 48.4%, a viability, T/C [27] of 36.3% and a viability, T/C [28] of 13.8%. It also gave a viability, T/C [29] of 3.3% and a viability, T/C [30] of 2.37%.
